From patent US9295630B2, “Vitamin C complexes” (CENTRE NATIONAL DE LA RECHERCHE SCIENTIFIQUE, priority 2012, dated 2016)
Read-outs that look alike come from different tables or passages of the source.

Assays:
Assay type in all cases: cell-based
neutral GAGs = experiment: Expression of neutral GAGs in human skin explants (alcian blue/PAS staining); conditions: topical, D10, relative to control No. 0
Procedure: (§1) Explants of human skin with a diameter of about […], obtained from surgical waste from cosmetic surgery and more particularly from abdominoplasty of women about thirty years of age, are used. The human skin is kept alive in a usual nutrient medium at 37° C. in humid atmosphere, enriched with 5% CO2, for ten days.
(§2) The explants of human skin are treated using a gel according to the invention comprising the VitC-SQ complex or conjugate according to the invention obtained in example 1a formulated in squalene as described in example 3 to obtain compositions comprising 1 wt % and 3 wt % respectively, expressed as weight of vitamin C active ingredient relative to the total weight of the composition. To obtain values of 1% and 3% respectively, expressed as weight of vitamin C, the concentration of the VitC-SQ complex is adjusted accordingly.
(§3) These two active ingredients are used at a concentration of 1 wt % and 3 wt %, expressed as weight of vitamin C active ingredient relative to the total weight of the composition.
(§4) Each of the compositions tested is applied topically, at a rate of 2 mg per explant, on the explants of human skin using a spatula on day zero (DO), then at 1 day (D1), at 3 days (D3), at 6 days (D6) and finally at 8 days (D8).
(§5) On the tenth day, the explants treated with each of the compositions are taken and are submitted to the same conditions as the explants of control No. 0.
(§6) Neutral GAGs, reservoirs of the growth factors near the dermal-epidermal junction, and acid GAGs, essentially hyaluronic acid, are examined on paraffin sections after staining with alcian blue/PAS (Mowry staining)

type III collagen = experiment: Expression of type III collagen in human skin explants (immunolabeling); conditions: gel at 3 wt % as vitamin C, topical, D10, relative to control No. 0
Procedure: (§7) For this assessment, only certain of the explants of human skin described above are used. More particularly, they are untreated explants (control No. 0) and explants treated with VitC-SQ according to the invention at 3 wt %, with free vitamin C at 3 wt % (control No. 1) and with VitC-palm at 3 wt % (control No. 2), expressed as weight of vitamin C active ingredient relative to the total weight of the composition.
(§8) The microscopic observations are carried out in light microscopy, using a Leica microscope, type DMLB, with x 40 objective. The images were recorded with an Olympus DP72 camera, using Olympus Cell^D acquisition and archiving software.
Regarding the labeling of type III collagen, the latter is labeled on sections in paraffin (fixation with formol) with a goat anti-human collagen III polyclonal antibody (SBA ref: 1330-01), at 1/50th overnight at room temperature using a Vectastain RTU Universal VECTOR avidin/biotin amplifier system, detected in diaminobenzidine (DAB) with the nuclei counterstained with Masson's hemalum.

type I collagen = experiment: Expression of type I collagen in human skin explants (immunolabeling); conditions: gel at 3 wt % as vitamin C, topical, D10, relative to control No. 0
Procedure: as §7, §8
Type I collagen is labeled on frozen sections with a rabbit anti-human collagen I antibody (Monosan ref PS047, polyclonal), at 1/800th for 1 hour at room temperature with a biotin/streptavidin amplifier system, detected by fluorescence (FITC caltag SA 1001). The nuclei were counterstained with propidium iodide.

explants of human skin = experiment: General morphology / acanthosis of human skin explants (Masson's trichrome staining); conditions: for dermal stimulation / epidermal stimulation: topical, D10, relative to control No. 0
Procedure: as §1, §2, §3, §4, §5
After 48 hours of fixation in ordinary Bouin, the samples are dehydrated and impregnated with paraffin using a Leica 1020 automatic dehydrator. Then they are made into a block according to procedure MO-H-153 using a Leica EG 1160 coating station.
5-μm sections are prepared using a Minot type microtome, Leica RM 2125, and are glued on superfrost silanized glass histology slides.
Microscopic observations are performed in light microscopy, using a Leica microscope of the Orthoplan type, with x 25 and x 40 objectives. The images are recorded with a Sony DXC 390P tri CCD camera and are stored using Leica IM1000 data archiving software.
Acanthosis of the skin, and more generally observation of the general morphology is carried out on sections in paraffin after staining with Masson's trichrome, Goldner's variant, according to procedure MO-H-157.

acid GAGs = experiment: Expression of acid GAGs in human skin explants (alcian blue/PAS staining); conditions: topical, D10, relative to control No. 0
Procedure: as §1, §2, §3, §4, §5, §6

[1] = system: CCD34SK human fibroblasts; experiment: Test of cellular viability (MTT assay); conditions: for IC50: 4 h incubation then 48 h, read-out: IC50 (loss of 50% in cellular viability)
Procedure: 10 000 cells of CCD34SK human fibroblasts per well were seeded in a 96-well plate.
The test products are added to the wells in different concentrations. After 4 h of incubation, the culture medium is replaced with new biological medium and the cells are incubated for 48h at 37° C. and 5% CO2.
Then, the culture medium is removed by inverting and 100 μL, of PBS/well with MTT at a concentration of 0.5 mg/ml is added. The plate is put back in the incubator for 2 h at 37° C. and 5% CO2. In order to dissolve the dark blue crystals of formazan that have formed, 100 μL of a solution of SDS (sodium dodecyl sulfate) is added to each well and then the plate is incubated again for 12 h at 37° C. and 5% CO2.
At the end of the 12 h, spectrophotometric measurements are carried out on an ELISA plate reader at a wavelength of 570 nm. The percentage viability of the cells in the presence of the test molecules is then calculated from the following formula: (mean OD of the treated cells—OD of control with medium only/mean OD of the control cells (100% viability)—OD of control with medium only)×100±standard deviation; or presented in the form of curves plotting the evolution of absorbance as a function of time.
The IC50 values (“inhibitory concentration 50%” or the concentration that inhibits growth of 50% of the cells) then correspond to a product concentration tested generating a loss of 50% in cellular viability (see Table below).

Row | SMILES | overexpression of neutral GAGs (neutral GAGs; gel at 1 wt % as vitamin C) | overexpression of neutral GAGs (neutral GAGs; gel at 3 wt % as vitamin C) | expression of type III collagen (type III collagen) | expression of type I collagen (type I collagen) | effect on skin explants (overall) (explants of human skin; dose less than or equal to 3 wt % as vitamin C) | dermal stimulation (explants of human skin; gel at 1 wt % as vitamin C) | epidermal stimulation (explants of human skin; gel at 1 wt % as vitamin C) | dermal stimulation (explants of human skin; gel at 3 wt % as vitamin C) | epidermal stimulation (explants of human skin; gel at 3 wt % as vitamin C) | overexpression of epidermal acid GAGs (acid GAGs; gel at 1 wt % as vitamin C) | overexpression of epidermal acid GAGs (acid GAGs; gel at 3 wt % as vitamin C) | dermal and epidermal stimulation compared with VitC-Palm (explants of human skin; at equivalent dose of vitamin C) | toxicity relative to VitC-palm [1] | IC50 ([1]; Fibroblast) [µM] | IC50 [1] [µM]
1 | O=C1OC(C(O)CO)C(O)=C1O (centres unmarked) [Free vitamin C, 5-(1,2-dihydroxy-ethyl)-3,4-dihydroxy-5H-furan-2-one] | No overexpression of neutral GAGs | No overexpression of neutral GAGs | No overexpression of type III collagen | No overexpression of type I collagen | no effect | No dermal stimulation | No epidermal stimulation | Moderate dermal stimulation | No epidermal stimulation | No overexpression of epidermal acid | No overexpression of epidermal acid |  |  |  | 
2 | CC(C)=CCCC(C)=CCCC(C)=CCCC=C(C)CCC=C(C)CCC(=O)OC[C@H](O)[C@H]1OC(=O)C(O)=C1O [VitC-SQ, 6-O-[4,8,13,17,21-pentamethyl-docosa-4,8,12,16,20-pentaenoyl] ascorbic acid] | Slight overexpression of neutral GAGs | Definite overexpression of neutral GAGs | Slight overexpression of type III collagen | Slight underexpression of type I collagen |  | Moderate dermal stimulation | Slight epidermal stimulation | Fairly definite dermal stimulation | Definite epidermal stimulation | No overexpression of the epidermal acid GAGs | No overexpression of epidermal acid | greater than VitC-Palm | half as toxic as VitC-palm | 600 | 
3 | CCCCCCCCCCCCCCCC(=O)OC[C@H](O)[C@H]1OC(=O)C(O)=C1O [VitC-palm, 6-ascorbyl palmitate] | Slight overexpression of neutral GAGs | Very moderate overexpression of neutral | Very slight overexpression of type III | No overexpression of type I collagen |  | No dermal stimulation | No epidermal stimulation | Moderate dermal stimulation | No epidermal stimulation | No overexpression of epidermal acid | No overexpression of epidermal acid |  |  |  | 250
